{
  "source": "patent US6916471B2",
  "about": "“Red blood cells loaded with S-nitrosothiol and uses therefor” (Duke University, priority 1995, dated 2005)",
  "key": {"rabbit aortic ring [1]": {"test_system": "rabbit aortic ring", "test": "Rabbit aortic ring bioassay of CYSNO-treated blood with or without glutathione", "conditions": "100 μM", "experimental": "NO-loaded red blood cells were produced by incubating whole human blood in a solution comprising S-nitrosocysteine (CYSNO) at a molar ratio of 1:100 CYSNO:hemoglobin for 5 minutes at room temperature. The bioactivity of the treated blood was tested in a rabbit aortic ring bioassay, in the presence (+GSH) or absence (−GSH) of 100 μM glutathione."}, "[2]": {"test": "Endogenous SNO-Hb and Hb(FeII)NO in blood by photolysis-chemiluminescence", "format": "in vivo, rat", "conditions": "45 minutes after infusion, 50 mg/kg", "from_the_text": "To determine if SNO-Hb is naturally occuring in the blood, and if so, its relationship to the O2 transport capacity and nitrosylated-heme content of red cells, we developed an analytical approach to assay the S-nitrosothiol and nitrosyl-heme content of erythrocytes (Table 2). […] Hb was then purified from red cells and assayed for RSNO and (FeII)NO content. Arterial blood contained significant levels of SNO-Hb, whereas levels were virtually undetectable in venous blood (Table 2). […] The arterial-venous distribution seen for SNO-Hb was reversed in the case of Hb(FeII)NO, which was detected in higher concentrations in partially deoxygenated (venous) erythrocytes (Table 2). […] However, levels of Hb(FeII)NO in vivo are typically too low to be detected (by EPR) and SNO-Hb is EPR-silent (i.e. it is not paramagnetic). Thus, photolysis-chemiluminesence represents an important technological advance, as it is the first methodology capable of making quantitative and functional assessments of NO binding to Hb under normal physiological conditions.\nBlood was obtained from the left ventricle (arterial) and jugular vein (venous) of anesthetized Sprague-Dawley rats. […] In 24 rats, Hb samples were divided in two aliquots which were then treated or not treated with 10-fold excess HgCl2 over protein concentration as measured by the method of Bradford. […]"}, "Sprague-Dawley rat": {"test_system": "Sprague-Dawley rat", "test": "Mean arterial pressure after femoral vein injection of loaded red blood cells", "format": "in vivo", "conditions": "50 mg/kg", "from_the_text": "Systemic administration of cell-free Hb results in hypertensive responses which have been attributed to NO scavenging by the heme (Vogel, W. M., et al., Am. J. Physiol. 251:H413-H420 (1986); Olsen, S. B., et al., Circulation 93:329-332 (1996)). To determine if SNO-Hb is free of this adverse affect, and to explore if in vitro mechanisms of NO release extend to the in vivo circumstance, we compared responses to Hb and SNO-Hb infused as a bolus into the femoral vein of anesthetized rats. […] Thus, the profiles of these compounds in vivo closely resemble those seen in vitro (FIG. 4A). […] These changes in mean blood pressure of ˜10% are on the order of those that differentiate normotension from hypertension in man, and in the therapeutic range of some antihypertensive regimens. […] The bioactivity of SNO-Hb in blood, where S—NO/heme stoichiometries approach 1:50,000, is a dramatic illustration of the resistence of this NO-related activity to Hb(Fe) inactivation. […]\nRats were anesthetized by intraperitoneal injection of pentobarbital and the femoral arteries and veins accessed by local cut down. The artery was then cannulated and the blood pressure monitored continuously using a Viggo Spectramed pressure transducer attached to a Gould recorder. […]"}, "rabbit aortic ring [3]": {"test_system": "rabbit aortic ring", "test": "CysNOEE-treated human blood, rabbit aortic ring bioassay", "conditions": "CysNOEE:heme 1:100 to 10:1; 21% and 1% oxygen", "experimental": "S-nitrosocysteine ethyl ester (CysNOEE) was added to human whole blood to interact with the red blood cells. CysNOEE:Heme (see FIG. 22) is the molar ratio of CysNOEE to heme in hemoglobin contained in red blood cells, for CysNOEE incubated with blood for 5 minutes at room temperature. After these incubations at different CysNOEE:heme ratios (1:100, 1:10, 1:1 and 10:1; see FIG. 22), red blood cell membranes were isolated by lysis and centrifugation, and S-nitrosothiol (SNO) content of the isolated membranes was determined by photolysis chemiluminescence assay. The concentrations of SNO in the red blood cell membranes were plotted in FIG. 22 as membrane SNO. Bioactivity of red blood cells—from release of biologically active NO—was determined in a rabbit aortic ring bioassay under two different concentrations of oxygen, and the results are plotted in FIG. 22 as 21% oxygen, vasoactivity, and 1% oxygen, vasoactivity."}, "[4]": {"test_system": "patient with primary pulmonary hypertension", "test": "Inhaled ethyl nitrite in patients with primary pulmonary hypertension, red blood cell NO", "format": "in vivo, human", "conditions": "PPH patients", "experimental": "A patient with primary pulmonary hypertension, with blood having starting values for SNO-hemoglobin, iron nitrosylhemoglobin and total NO/hemoglobin molar ratio as shown in the left bar of FIG. 15, was given an NO-donating drug by inhalation. Ethyl nitrite was diluted in ethanol. Oxygen carrier gas was passed though the ethyl nitrite solution and delivered to the patient at 10 liters/min. After 10 minutes, blood was withdrawn and analyzed by photolysis chemoluminescence. Results are shown in the right bar of FIG. 15, for the patient's blood after treatment. SNO-Hb and total Hb-bound NO levels were depressed in the patient relative to normal controls, but rose during inhalation of ethyl nitrite gas. The experiment was repeated for other patients (n=5)."}, "rabbit aortic ring [5]": {"test_system": "rabbit aortic ring", "test": "Rabbit aortic ring perfused with blood of PPH patient after ethyl nitrite", "conditions": "1% oxygen", "from_the_text": "The downward deflection on the plot indicates a dilation of the blood vessel, which for the “NO” blood, occurred for approximately 30 seconds."}},
  "data": [
    {"compound": "N[C@@H](CCC(=O)N[C@@H](CS)C(=O)NCC(=O)O)C(=O)O", "note": "[Glutathione, glutathione]", "values": [
      {"measurement": "effect on red blood cell-mediated vasodilation", "setting": "rabbit aortic ring [1]", "value": "potentiates the bioactivity of red blood cell-mediated vasodilation"}
    ]},
    {"compound": "CNC(=N)NCCC[C@H](N)C(=O)O", "note": "[L-NMMA, N^G-monomethyl-L-arginine]", "values": [
      {"measurement": "depletion of SNO-Hb", "setting": "[2]", "value": 82, "unit": "%"},
      {"measurement": "depletion of total Hb-NO", "setting": "[2]", "value": "50±18", "unit": "%"},
      {"measurement": "increase in blood pressure", "setting": "Sprague-Dawley rat", "value": "about 20 mm Hg"}
    ]},
    {"compound": "CCOC(=O)[C@@H](N)CSN=O", "note": "[S-nitrosocysteine ethyl ester]", "values": [
      {"measurement": "vasoactivity of treated red blood cells", "setting": "rabbit aortic ring [3]", "value": "relaxes blood vessels, most effectively under ischemic conditions"}
    ]},
    {"compound": "CCON=O", "note": "[ethyl nitrite]", "values": [
      {"measurement": "increase in SNO-Hb in blood", "setting": "[4]; inhaled for 10 minutes, n=5", "value": "statistically significant"},
      {"measurement": "levels of iron nitrosylhemoglobin before and after treatment", "setting": "[4]; inhaled for 10 minutes, n=5", "value": "no statistical difference"},
      {"measurement": "pulmonary vascular resistance and systemic oxygenation", "setting": "[4]; inhaled", "value": "decreases in pulmonary vascular resistance and improved systemic oxygenation"},
      {"measurement": "duration of dilation of aortic ring by blood of treated patient", "setting": "rabbit aortic ring [5]", "value": "approximately 30 seconds"}
    ]}
  ]
}
